Test results published in ChEMBL document CHEMBL2434868, “Chemical investigation of an antimalarial Chinese medicinal herb Picrorhiza scrophulariiflora” (Bioorg Med Chem Lett, 2013).

Test system: NFF
Test: Cytotoxicity against human NFF cells up to 100 uM after 3 days by SRB assay
Assay type: cell-based
Conditions: 72 h

Row | Structure (SMILES) | Activity
1 | CC(=O)OC(C)(C)/C=C/C(=O)[C@](C)(O)[C@H]1[C@H](O)C[C@@]2(C)[C@@H]3CC=C4[C@H](C[C@H](O[C@@H]5O[C@H](CO)[C@@H](O)[C@H](O)[C@H]5O)[C@H](O)C4(C)C)[C@]3(C)CC[C@]12C | Non-toxic

Test system: Plasmodium falciparum
Test: Antimalarial activity against ring stage of Plasmodium falciparum 3D7 infected in erythrocytes assessed as [3H]-hypoxanthine incorporation after 48 hrs by liquid scintillation counting analysis
Assay type: functional, organism-based
Conditions: not given

Row | Structure (SMILES) | IC50 | IC90 | IC95
2 | O=C(/C=C/c1ccccc1)OC[C@H]1O[C@@H](O[C@@H]2OC=C[C@H]3[C@H](O)[C@@H]4O[C@]4(CO)[C@@H]23)[C@H](O)[C@@H](O)[C@@H]1O [PICROSIDE I] | > 25 µM |  | 
3 | COc1cc(C(C)=O)ccc1O[C@@H]1O[C@H](COC(=O)/C=C/c2ccc(O)cc2)[C@@H](O)[C@H](O)[C@H]1O | > 25 µM |  | 
4 | CC(=O)c1ccc(O[C@@H]2O[C@H](COC(=O)/C=C/c3ccc(O)cc3)[C@@H](O)[C@H](O)[C@H]2O)cc1 | > 25 µM |  | 
5 | CC(=O)OC(C)(C)CCC(=O)[C@](C)(O)[C@H]1[C@H](O)C[C@@]2(C)[C@@H]3CC=C4[C@H](C[C@H](O[C@@H]5O[C@H](CO)[C@@H](O)[C@H](O)[C@H]5O)[C@H](O)C4(C)C)[C@]3(C)CC[C@]12C | > 25 µM |  | 
6 | CC(=O)OC(C)(C)/C=C/C(=O)[C@](C)(O)[C@H]1[C@H](O)C[C@@]2(C)[C@@H]3CC=C4[C@H](C[C@H](O[C@@H]5O[C@H](CO)[C@@H](O)[C@H](O)[C@H]5O)[C@H](O)C4(C)C)[C@]3(C)CC[C@]12C | 8.3 µM | 17.3 µM | 23.5 µM
7 | O=C(/C=C/c1ccc(O)c(O)c1)OC[C@H]1O[C@@H](OC[C@@H](O)[C@@H](O)[C@H](O)[C@H](O)CO)[C@H](O)[C@@H](O)[C@@H]1O | > 25 µM |  | 
8 | COc1cc(/C=C/C(=O)OC[C@H]2O[C@@H](Oc3ccc(C(C)=O)cc3OC)[C@H](O)[C@@H](O)[C@@H]2O)ccc1O | > 25 µM |  | 
9 | O=C(/C=C/c1ccccc1)OC[C@H]1O[C@@H](OC[C@@H](O)[C@@H](O)[C@H](O)[C@H](O)CO)[C@H](O)[C@@H](O)[C@@H]1O | > 25 µM |  | 
10 | COc1cc(C(C)=O)ccc1O[C@@H]1O[C@H](COC(=O)/C=C/c2ccccc2)[C@@H](O)[C@H](O)[C@H]1O | > 25 µM |  | 
11 | COc1cc(C(=O)O)ccc1O[C@@H]1O[C@H](COC(=O)/C=C/c2ccccc2)[C@@H](O)[C@H](O)[C@H]1O | > 25 µM |  | 
